SMILES strings stand for the structures.

This data set in a line: Solubility of additive in water. The data set is classed as physicochemical. The note with it: amount of the additive dissolving in 100 ml of pure water at 25° C. The procedure: The amount of the additive dissolving in 100 ml of pure water at 25° C. was measured and evaluated according to the following criteria.
Regarding `COC(=O)Oc1c(Cc2ccc(S(=O)(=O)[O-])cc2S(=O)(=O)[O-])c(=O)n(-c2ccccc2)c(=O)n1Cc1ccccc1.[Na+].[Na+]` [Example compound B], the Solubility in water result was “A (Equal to or greater than 5 g)”.

`COC(=O)Oc1[nH]c(=O)n(CCCS(=O)(=O)[O-])c(=O)c1Cc1ccc(C=O)cc1.[Na+]` [Example compound AAC]: the Solubility in water entry was “A (Equal to or greater than 5 g)”.

With `COC(=O)Cc1c(Cc2ccc(S(=O)(=O)[O-])cc2S(=O)(=O)[O-])c(=O)[nH]c2ccccc12.[Na+].[Na+]` [Example compound AJ], the Solubility in water result is recorded as “A (Equal to or greater than 5 g)”.

As for `CCOC(=O)Oc1c(Cc2ccccc2S(=O)(=O)[O-])c(=O)n(-c2ccccc2)c(=O)n1-c1ccccc1.[Na+]` [Example compound D], the Solubility in water entry was “A (Equal to or greater than 5 g)”.

As to `Nc1c(F)c(F)c(C(=O)O)c(F)c1F` [Organic acid 2, reference compound], the Solubility in water entry was “B (Equal to or greater than 1 g and less than 5 g)”.

Consider `O=C1NC(=O)N(Cc2ccccc2)C(=O)C1c1ccccc1` (stereo not drawn) [Organic acid 1, reference compound], for which the Solubility in water entry is “C (Less than 1 g.)”.

Turning to `O=C(Oc1c(Cc2ccccc2S(=O)(=O)[O-])c(=O)n(-c2ccccc2)c(=O)n1-c1ccccc1)OC1c2ccccc2-c2ccccc21.[Na+]` [Example compound H], the Solubility in water result is “B (Equal to or greater than 1 g and less than 5 g)”.

On to `COC(=O)Oc1[nH]c(=O)n(Cc2ccc(B(O)O)cc2)c(=O)c1Cc1ccc(S(=O)(=O)[O-])cc1S(=O)(=O)[O-].[Na+].[Na+]` [Example compound AAL], for which the Solubility in water entry was “A (Equal to or greater than 5 g)”.

Regarding `CCO[Si](CCCNC(=O)OCCn1c(=O)[nH]c(OC(=O)OC)c(Cc2ccc(S(=O)(=O)[O-])cc2S(=O)(=O)[O-])c1=O)(OCC)OCC.[Na+].[Na+]` [Example compound AAP], the Solubility in water entry is listed as “A (Equal to or greater than 5 g)”.

Regarding `[Cl-].[Cl-].[Zn+2]` [ZnCl2, reference compound], the Solubility in water entry is “A (Equal to or greater than 5 g)”.

For `COC(=O)Oc1[nH]c(=O)n(Cc2ccc(F)c(F)c2)c(=O)c1Cc1ccc(S(=O)(=O)[O-])cc1S(=O)(=O)[O-].[Na+].[Na+]` [Example compound AAS], the Solubility in water result is “A (Equal to or greater than 5 g)”.

Turning to `CC(C)[Si](Oc1c(Cc2ccccc2)c(=O)n(CS(=O)(=O)[O-])c(=O)n1C)(C(C)C)C(C)C.[Na+]` [Example compound L], the Solubility in water entry is given as “A (Equal to or greater than 5 g)”.

As to `COC(=O)Oc1c(Cc2ccccc2)c(=O)n(CS(=O)(=O)[O-])n1C.[Na+]` [Example compound AH], the Solubility in water entry is “A (Equal to or greater than 5 g)”.

Take `COC(=O)Oc1[nH]c(=O)n(Cc2ccc(S(=O)(=O)[O-])cc2)c(=O)c1C=O.[Na+]` [Example compound AAV]: the Solubility in water entry was “A (Equal to or greater than 5 g)”.

As for `O=C([O-])c1ccc(Cc2c(OCOCc3ccccc3)n(-c3ccccc3)c(=O)n(-c3ccccc3)c2=O)cc1.[Na+]` [Example compound O], the Solubility in water entry was “B (Equal to or greater than 1 g and less than 5 g)”.

These data come from US20160369115A1, “POLARIZING PLATE COMPOSITION, POLARIZING PLATE PROTECTIVE FILM, POLARIZER, POLARIZING PLATE, LIQUID CRYSTAL DISPLAY DEVICE, AND COMPOUND USED IN THE LIQUID CRYSTAL DISPLAY DEVICE” (FUJIFILM Corporation, priority 2014, published 2016).
